No end group written: not given here.
Columns and labels:
AR42J cells = experiment: β cell differentiation promoting activity using AR42J cells (anti-insulin immunofluorescence), Example 26; format: cell-based; settings: 5 days incubation; for Differentiation into insulin-producing β cells (stained cells under fluorescent microscope): anti-insulin antibody/FITC staining; for Incidence of insulin-producing cells: comparison between the proteins
Description: Cells of the AR42J cell line derived from pancreatic cancer induced by chemical carcinogens (Christophe, Am. J. Physiol., 266: G963 (1994)) were suspended to a concentration of 10^5 cells/mL in Dulbecco's modified Eagle MEM medium containing 10% fetal calf serum and one of hBTC50, Mutein A, Mutein B, or the 80-residue betacellulin (hBTC80) prepared in accordance with the method in Japanese Unexamined Patent Application (Kokai) H10-191989. 500 μL of these suspensions was inoculated on chamber slides and incubated for 5 days at 37° C. in carbon dioxide gas incubators (5% carbon dioxide gas, 95% air). After 5 days, the cells were washed once with PBS, fixed in 10% formaldehyde, and treated for 5 min with 0.1% Triton X-100. Block Ace (Snow Brand, Japan) was then added for 40 minutes of blocking at room temperature. Anti-insulin antibodies (by Advanced Immunochemicals) diluted with 10% Block Ace were added, and reacted for 40 minutes at room temperature. 0.1% Triton X-100 was added, the reaction solution was allowed to stand for 5 minutes at room temperature, and the cells were then washed three times with PBS. FITC (fluorescein isothiocyanate) labeled anti-mouse IgG antibodies (Cappel) diluted with 10% Block Ace were added, and a reaction was brought about for 40 minutes. 0.1% Triton X-100 was added, the reaction solution was allowed to stand for 5 minutes, the cells were then washed three times with PBS, and they were then observed under a fluorescent microscope.

[1] = tested on: 3T3 A31-714 Clone 4 cells; experiment: Cell growth promoting activity using 3T3 cells (3H-thymidine uptake), Example 25; format: cell-based, mouse; settings: 3H-thymidine uptake into 3T3 A31-714 Clone 4; 100% is the maximum uptake of the 80-residue betacellulin
Description: The cell growth promoting activity was assayed by means of the ^3H-thymidine uptake into stationary 3T3 A31-714 Clone 4 (International Journal of Cancer, 12:463 (1973)) as described in Molecular Cell Biology, 8:588 (1988).
100 μL 3T3 A31-714 Clone 4 suspended to 1000 cells/mL using Dulbecco's modified Eagle MEM medium containing 5% bovine serum were seeded to 96 well plates and cultured for a day at 37° C. in carbon dioxide gas incubators (5% carbon dioxide gas, 95% air). 75 μL of supernatant was taken, and 100 μL of serum-free Dulbecco's modified Eagle MEM medium was added to adjust the serum concentration to 1%. Two more days of culture was followed by the addition of varying concentrations of the hBTC50, Mutein A, or Mutein B prepared in the above examples. 16 hours after these had been added, ^3H-thymidine (Amersham Pharmacia Biotech) was added in an amount of 0.25 μCi/well, after 4 hours the cells were washed 3 times with PBS, 100 μL of 5% SDS was added, and the cells were lysed. The cell lysate was transferred to scintillation vials, 1 mL of Scintillator A (Wako Pure Chemicals) was added, and the uptake of ^3H-thymidine into the cellwas assayed with a scintillation counter.

[2] = tested on: PLAP expression AR42J cells; experiment: β cell differentiation promoting activity using PLAP expression AR42J cells (AR71-104 clone), Example 27; format: cell-based; settings: 5 days, A405, 100% is the maximum absorbance when hBTC50 was added
Description: The differentiation promoting activity into β cells was also determined using AR42J cells transformed with the vector having alkaline phosphatase which had been ligated as a reporter downstream of the insulin promoter. Specifically, cells which have differentiated into β cells by addition of betacellulin produce alkaline phosphatase. As a result, by assaying the alkaline phosphatase activity, the differentiation promoting activity into β cells can be quantitatively assayed.
Cells of each clone were seeded on 24-well plates and cultured for 4 days with and without the addition of 20 ng/mL 80-residue BTC, the supernatant was collected and heat treated for 30 minutes at 65° C., and the alkaline phosphatase activity in the media was then assayed. Clones showing increased alkaline phosphatase activity with the addition of 80-residue betacellulin were selected. The AR71-104 clone was used below.
PLAP expression AR42J cells constructed in 3-2) were suspended to a concentration of 3×10^4 cells/mL in Dulbecco's modified Eagle MEM medium containing 10% fetal calf serum and on of varying concentrations of the hBTC50 or Mutein A or B prepared above. […] The samples were held for 10 minutes at 37° C., and 10 μL of 20 mg/mL p-nitrophenylphosphoric acid (Sigma) was added, a reaction was brought about for 16 hours at 37° C., and the absorbance at 405 nm (A405) was determined.

| Substance | Differentiation into insulin-producing β cells (stained cells under fluorescent microscope) (AR42J cells) | Incidence of insulin-producing cells (AR42J cells) | cell growth promoting activity ED50 [1] | activity inducing differentiation to β cells ED50 [2] |
| --- | --- | --- | --- | --- |
| Mutein B: hBTC50 in which seven N terminal residues were substituted with five corresponding EGF residues; SEQ ID NO: 45 (NSDSECPKQYKHYCIKGRCRFVVAEQTPSCVCDEGYIGARCERVDLFY; ends and bridges not checked; cysteine pairing not given here) | cells which had differentiated into insulin-producing β cells, were found | no differences in the incidence of insulin-producing cells | >10.0 nM | 0.7 nM |
| Mutein A: hBTC50 with 3 amino acids (Asn, Pro, Ser) of the heregulin sequence inserted between Cys3-Cys4; SEQ ID NO: 44 (RKGHFSRCPKQYKHYCIKGRCRFVVAEQNPSTPSCVCDEGYIGARCERVDLFY; ends and bridges not checked; cysteine pairing not given here) | cells which had differentiated into insulin-producing β cells, were found | no differences in the incidence of insulin-producing cells | 0.6 nM | 0.5 nM |

From patent US6825165B1, “Betacellulin modification” (Takeda Chemical Industries, Ltd., priority 1998, dated 2004)
